Laboratory results as given in paper PMC11320734 (ACS Pharmacology & Translational Science, 2024).
Like-named read-outs stand apart in the source and are kept apart here.

Assays:
human wild type CB2R = human wild type CB2R (Homo sapiens, UniProt P34972); assay: β-arrestin2 recruitment assay (Pathhunter); assay type: cell-based; design: host or cells: CHO cells (Pathhunter)
[1] = test system: renal I/R-induced acute kidney injury; assay: Ischemia/reperfusion (I/R) model of acute kidney injury; assay type: in vivo, C57BL/6 mice
Experimental: In the ischemia/reperfusion (I/R) model of acute kidney injury (AKI),[47],[48] the compounds were administered orally by gavage to C57BL/6 mice 30 min before ischemia obtained by clamping both renal arteries and veins for 25 min, followed by 24 h of reperfusion. Mice were anesthetized using xylazine (10 mg kg^–1)/ketamine (100 mg kg^–1) injected intraperitoneally. Sham treated mice were treated identically except for the temporary closure of the renal vessels. After 24 h, under reanesthesia, plasma was taken for biomarker analysis. Thereafter, mice still in deep anesthesia were sacrificed by cervical dislocation. Creatinine, BUN (blood urea nitrogen), NGAL (neutrophil gelatinase-associated lipocalin), osteopontin, and KIM1 (kidney injury molecule-1) levels were determined using the following commercially available standard assays: creatinine: Roche Diagnostics 03263991, BUN: Roche Diagnostics 04460715, NGAL: BioPorto, Kit046 + Kit042, osteopontin: R&D Systems, MOST00, KIM-1: Abnova, KA1064. To assess fibrotic effects, we used the unilateral ureteral obstruction (UOO) model in Sprague–Dawley rats.[49] For the UOO model, rats were sacrificed after 5, 8, and 11 days and the percentage of PicroSirius Red positive areas (indicator of collagen III–I deposition) were measured in 4 μm histological cross sections of the kidney after 2% paraformaldehyde perfusion fixation and paraffin embedding. The extend of kidney fibrosis was quantified based on PicroSirius Red staining of 10 renal sections about 1 mm apart from each kidney. The collagen–III-I-positive pixel counts were determined in the cortical aspect of each kidney section from 10 optical fields using a 40× objective. As the total area analyzed was identical for all kidneys under investigation, the absolute number of pixels was used as the relevant readout. Vehicle treated animals received saline gavage only. The details of PicroSirius Red staining were previously described.[22]

ABHD6 = ABHD6 (Homo sapiens, UniProt Q9BV23); assay: Endocannabinoid target profiling: ABHD6; assay type: biochemical
human CB2R = human CB2R (Homo sapiens, UniProt P34972); assay: Competition binding assay with [3H]-CP55940, HEK cell membranes
Experimental: Competition and saturation binding assays were performed using the radiolabeled CB1R/CB2R agonist [^3H]-CP55940 (PerkinElmer).
Binding reactions were terminated by vacuum filtration onto 0.5% polyethylenimine presoaked GF/B filter plates (Packard) using a Filtermate cell harvester followed by 6 brief washes with 0.3 mL/well of ice-cold wash buffer. Wash buffer comprising 50 mmol L^–1 Tris- HCl, 5 mmol L^–1 MgCl2, 2.5 mmol L^–1 EDTA, and 0.5% fatty acid-free BSA, pH 7.4. Plates were dried at 50 °C for 1 h and liquid scintillation counting was used to determine levels of bound radiolabel. IC50 values and Hill slopes were determined with a 4-parameter logistic model using ActivityBase (ID Business Solution, Guilford, UK) and pKi values were determined using the Cheng–Prusoff equation as shown below: [drawing 1] where S indicates the concentration of the substrate and Km depicts the affinity constant of the substrate.

[2] = 3 mg kg^–1 p.o., 24 h reperfusion
[3] = maximal protection at 3–30 mg kg^–1

Chain of human CB2R (P34972 whole entry, the tested form may be a part): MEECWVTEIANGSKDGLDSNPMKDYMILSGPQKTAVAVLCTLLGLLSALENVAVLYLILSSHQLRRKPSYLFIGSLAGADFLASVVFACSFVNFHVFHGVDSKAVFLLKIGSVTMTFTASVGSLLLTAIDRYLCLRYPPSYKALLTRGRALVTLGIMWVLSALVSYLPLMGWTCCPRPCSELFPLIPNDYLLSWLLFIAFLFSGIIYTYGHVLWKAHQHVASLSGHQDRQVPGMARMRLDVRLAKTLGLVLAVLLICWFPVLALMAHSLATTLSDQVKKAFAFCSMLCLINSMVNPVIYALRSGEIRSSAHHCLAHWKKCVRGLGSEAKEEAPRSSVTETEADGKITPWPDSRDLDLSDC
Chain of human wild type CB2R (P34972 whole entry, the tested form may be a part): as above
Chain of ABHD6 (Q9BV23 whole entry, species assumed): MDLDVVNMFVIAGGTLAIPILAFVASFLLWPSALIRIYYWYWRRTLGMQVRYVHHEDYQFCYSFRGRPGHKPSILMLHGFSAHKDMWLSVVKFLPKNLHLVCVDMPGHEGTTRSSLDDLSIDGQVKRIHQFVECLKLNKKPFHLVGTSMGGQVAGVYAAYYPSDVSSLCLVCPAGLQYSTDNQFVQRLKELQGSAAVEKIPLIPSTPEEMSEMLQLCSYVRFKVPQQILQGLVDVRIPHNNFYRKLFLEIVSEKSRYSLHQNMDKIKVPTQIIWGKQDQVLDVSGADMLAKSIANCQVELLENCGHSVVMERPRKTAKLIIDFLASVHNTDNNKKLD

Compound `Cn1c(C(C)(C)C)cc(=NC(=O)c2cc(C(F)(F)F)ccc2OCC(C)(C)O)n1CC1CCC1` [RNB-61] has an EC50 (human wild type CB2R; Figure 2, normalized to 1 μM CP55940) of 13.3 ± 1.9 nM, an Emax (human wild type CB2R; percentage normalized to 1 μM CP55940, read-out: Emax β-arrestin2 recruitment) of 80% and an Emax (human wild type CB2R; relative to CP55,940, text, read-out: Emax of total β-arrestin2 recruitment) of ~80%. The “effect on I/R induced plasma creatinine levels” value ([1]; 0.1 mg kg^–1) was “No significant difference”, the “reduction of BUN compared to vehicle” value [1, 2] was 30% and the “reduction of plasma creatinine compared to vehicle” value [1, 2] was 48%. The “reduction of plasma KIM-1 compared to vehicle” value [1, 3] was 50%, the “reduction of plasma NGAL compared to vehicle” value [1, 3] was 39% and the “reduction of plasma osteopontin compared to vehicle” value [1, 3] was 43%. For the same compound, the “dose from which KIM-1 release is inhibited” value ([1]; mouse, in vivo) was 0.3 mg kg^–1, the “dose from which NGAL release is inhibited” value ([1]; mouse, in vivo) was 0.3 mg kg^–1 and the “dose from which osteopontin release is inhibited” value ([1]; mouse, in vivo) was 3 mg kg^–1. For the same compound, the IC50 (ABHD6; Table S1, read-out: ABHD6 (Ki, IC50)) was > 10000 nM, the “inhibition of EC hydrolysis by ABHD6” value (ABHD6; screening concentration 10 μM) was “did not inhibit” and the Ki (human CB2R) was 0.57 ± 0.03 nM. The hCB2R selectivity (human CB2R; Ki hCB1R over Ki hCB2R) was 6810 and the “selectivity over hCB1R” value (human CB2R; hCB2R over hCB1R) was 6,800 fold.
